In patent US20210353633A1, “CYCLODEXTRIN-BASED FORMULATION OF A BCL-2 INHIBITOR” (LES LABORATOIRES SERVIER, priority 2018, published 2021):
In brackets after ≈: the same amount, converted by molar mass.

Assays:
[1] = PK parameters in RS4;11 grafted female SCID mice; format: in vivo; conditions: for Cmax: female, SCID, mouse, blood, iv
Description: RS4;11 cell line, obtained from ATCC, were subcutaneously injected into female SCID mice, provided by Charles River. When tumors reached the appropriate tumor volume, mice were randomized using Easy stat software. […]
In a 100 mL flask, introduce 20 g of Cavitron™ W7HP5 and add around 75 mL of a solution water/0.9% NaCl (70/30, v/v). Stir for 15 minutes at room temperature. Then, make up the solution to a volume of 100 mL by adding the previous solution water/0.9% NaCl, while maintaining magnetic stirring. Weigh the necessary amount of ‘Compound A, H2SO4’ and dissolve it with the previous 20% w/v Cavitron™ W7H5 solution. Heat the whole at 60° C. under vigorous magnetic stirring until solubilisation of the components of the mixture is complete. Measure the pH of the solution obtained. Adjust the pH to 3 by adding drop by drop, either HCl 0.1N or NaOH 0.1N, depending on the concentration of Compound A. Stir the mixture at least for 1 hour. Filtrate the obtained solution with a 0.2 μm-filter.
A 20% w/v Cavitron™ W7H5 solution containing a dose of 4 mg/mL of Compound A was prepared following this procedure. A second solution containing a dose of 1.5 mg/mL of Compound A was also prepared by diluting further the previous solution with the 20% w/v Cavitron™ W7H5 solution.

[2] = Solubility test in various carriers (Example 1); format: physicochemical; conditions: aqueous with cosolvent or surfactant or cyclodextrin, thermodynamic from solid; in the carriers permitting substantial solubilisation (cyclodextrins, PEG400, PEG400/EtOH/0.9% NaCl); read-out: solubilities after 24 hours' stirring
Description: The solubility of ‘Compound A, H2SO4’ was studied in various media, including: • citrate buffer (pH=2; 50 mM), acetate buffer (pH=4; 50 mM) and phosphate buffer (pH=6-7.4; 67.7 mM); • cyclodextrins of the type sulfobutyl ether β-cyclodextrin (SBE-β-cyclodextrin) or hydroxypropyl β-cyclodextrin (HP-β-cyclodextrin); more precisely, the SBE-β-cyclodextrin tested is Dexsolve™ marketed by Cyclolab, while the HP-β-cyclodextrins tested are Cavitron™ W7HP7 and Cavitron™ W7HP5 marketed by Wacker; Kleptose™ HP and Kleptose™ HPB marketed by Roquette; • surfactants such as polysorbate 80 and Kolliphor™ ELP; • the mixture PEG400/ethanol/0.9% NaCl (40/10/50).
5 g of the cyclodextrin studied (Dexsolve™, Cavitron™ W7HP7, Cavitron™ W7HP5, Kleptose™ HP or Kleptose™ HPB) are weighed into a […] graduated flask. Approximately 15 mL of water are added and the whole obtained is subjected to magnetic stirring. The volume is then made up to 25 mL by the addition of water. The whole is placed under magnetic stirring for 10 minutes.
1 g of the surfactant studied is weighed into a 50 mL graduated flask. The volume is then made up to 50 mL by means of 0.9% NaCl solution. The whole is placed under magnetic stirring for 1 hour.
20 mL of PEG 400, 5 mL of ethanol and 25 mL of NaCl are taken. The whole is placed in a 100 mL Erlenmeyer flask and stirred magnetically for 30 minutes.
Approximately 340 mg of ‘Compound A, H2SO4’ are weighed into a 5 mL tube. 3 mL of the medium containing the carrier to be tested are then added. The whole is then placed under magnetic stirring for 2 hours or 24 hours. The suspension or solution so obtained is passed through a 0.2 μm filter (PVDF membrane—Millipore) before being analysed by HPLC. In addition, the presence of degradation products of Compound A was investigated in the samples stored for 72 hours at ambient temperature.

[3] = Physical and chemical stability over time of solutions diluted in G5; format: physicochemical; conditions: 12, 20 and 1000 mg/250 mL of G5
Description: Moreover, studies of physical stability over time (24 h, 48 h and 72 h) are carried out on the solutions obtained hereinbefore. In particular, these studies include the particle count of the tested solutions in accordance with the method described in the text of the European Pharmacopoeia 2.9.19. Tests 1.B (i.e. counting of the sub-visible particles by light obscuration).
Studies of chemical stability over time (24 h, 48 h and 72 h) are also put in place in order to ensure the stability of the product under laboratory light (1500 lux) and various heat conditions (ambient temperature, 5° C.). These studies include especially measurements of the amount of active ingredient and degradation products. Pharmaceutical compositions of Compound A solubilised by means of a Cavitron™ W7H5 solution diluted in G5 solution were tested for the following concentrations: 12 mg/250 mL, 20 mg/250 mL and 1000 mg/250 mL of G5 solution.

[4] = Aqueous solubility of Compound A; format: physicochemical; conditions: aqueous media, aqueous buffer; free base; across all pHs
Description: In order to enable safe and effective administration of Compound A, and to elicit the required therapeutic effects, Compound A needs to be solubilized at higher concentration than its aqueous solubility.

Cc1c(N(C(=O)c2cc(-c3cc(Cl)ccc3C(=O)N3Cc4ccccc4C[C@H]3CN3CCOCC3)n(C)c2C)c2ccc(O)cc2)cc(C#N)n1C [Compound A, 5-(5-chloro-2-{[(3S)-3-(morpholin-4-ylmethyl)-3,4-dihydroisoquinolin-2(1H)-yl]carbonyl}phenyl)-N-(5-cyano-1,2-dimethyl-1H-pyrrol-3-yl)-N-(4-hydroxyphenyl)-1,2-dimethyl-1H-pyrrole-3-carboxamide]
exposure ([1]; 15 mg/kg i.v.): 20463 ng·h/mL
exposure ([1]; 40 mg/kg i.v.): 46509 ng·h/mL
Cmax ([1]; 15 mg/kg i.v.): 14700 ng/mL
Cmax ([1]; 40 mg/kg i.v.): 23300 ng/mL
solubility at 24 h [2]: 10000 to 30000 µg/mL (≈ 13.9 to 41.8 mM)
chemical degradation product ([3]; laboratory light (1500 lux), ambient temperature and 5° C., during 72 h): No significant chemical degradation product was observed
rate of sub-visible particles (light obscuration method) ([3]; up to 72 h): in accordance with the requirement of the European Pharmacopoeia 2.9.19
solubility [4]: < 10 µg/mL
